Starred links: 1 amine or outer side, 2 acyl side, 3 side chain; linkers in the order of their positions; H or OH if unused. Positions of bridges follow the written chain, without caps; N, C: chain ends. Non-standard residues stand in square brackets, D forms with d. Residues, ends and D or L forms follow the SMILES beside them. ξ: configuration not given here. *: point of attachment. Phe(4-guanidino) = N=C(N)Nc1ccc(C[C@H](N)C(=O)O)cc1; Dihydroorotyl(S) = O=C1C[C@@H](C(=O)*)NC(=O)N1; ξTrp(6-F) = NC(Cc1c[nH]c2cc(F)ccc12)C(=O)O; Decanoyl(3,6,9-trioxa) = COCCOCCOCC(=O)*; Phe(3-OMe) = COc1cccc(C[C@H](N)C(=O)O)c1; Dip = N[C@H](C(=O)O)C(c1ccccc1)c1ccccc1; NMe2Phe = CN(C)[C@@H](Cc1ccccc1)C(=O)*; Phe(4-F) = N[C@@H](Cc1ccc(F)cc1)C(=O)O; Bta = N[C@@H](Cc1csc2ccccc12)C(=O)O; Hyp = O=C(O)[C@@H]1C[C@@H](O)CN1; NMeF = CN[C@@H](Cc1ccccc1)C(=O)O; d(hLeu) = CC(C)CC[C@@H](N)C(=O)O; dCha = N[C@H](CC1CCCCC1)C(=O)O; NHCH2CH(OH)CH2OH = OCC(O)CN*; Nle = CCCC[C@H](N)C(=O)O; Orn = NCCC[C@H](N)C(=O)O; Pra = C#CC[C@H](N)C(=O)O; Aze = O=C(O)[C@@H]1CCN1; CO = O=C([*:1])[*:2]; tBu = CC(C)(C)*

One test concerns the target T1, human C5aR(CD88) (Homo sapiens, UniProt P21730).
T1 construct: expressed in transfected cells; host or cells: rat basophilic leukemia cells (RBL)
T1 sequence (P21730 1-350): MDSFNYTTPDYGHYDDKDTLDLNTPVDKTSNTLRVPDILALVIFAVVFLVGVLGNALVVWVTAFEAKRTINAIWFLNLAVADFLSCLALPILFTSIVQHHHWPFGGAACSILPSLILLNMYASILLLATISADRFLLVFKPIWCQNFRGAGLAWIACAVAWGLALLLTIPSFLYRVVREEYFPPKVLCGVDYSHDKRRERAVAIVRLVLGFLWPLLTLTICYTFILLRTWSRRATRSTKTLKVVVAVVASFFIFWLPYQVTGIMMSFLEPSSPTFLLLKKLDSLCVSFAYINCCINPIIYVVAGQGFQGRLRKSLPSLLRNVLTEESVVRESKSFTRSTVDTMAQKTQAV
Put plainly: Determination of the IC50 value in an enzyme release assay (functional assay, antagonistic activity). Format: cell-based. The settings on record: activity (group).
In turn, `CO[C@@H]1C[C@H]2C(=O)N[C@H](CCC(C)C)C(=O)N[C@@H](Cc3ccc(F)cc3)C(=O)N[C@@H](Cc3ccccc3)C(=O)NCCC[C@H](NC(=O)[C@@H](N)Cc3ccccc3)C(=O)N2C1` [Compound 355, H-Phe-[Orn-Hym-hle-Pff-Phe]] (H-F[Orn][Hyp](Me)[d(hLeu)][Phe(4-F)]F; lactam 2-C) had an IC50 of 50 to 200 nM.
Compound `CC(=O)N[C@@H](Cc1ccccc1)C(=O)N[C@@H](CCCN)C(=O)N1CCC[C@H]1C(=O)N[C@H](CCC(C)C)C(=O)N[C@@H](Cc1ccc(F)cc1)C(=O)N[C@@H](Cc1ccccc1)C(N)=O` [Compound 302, Ac-Phe-Orn-Pro-hle-Pff-Phe-NH2] (Ac-F[Orn]P[d(hLeu)][Phe(4-F)]F-NH2) yielded an IC50 of 50 to 200 nM.

Staying with this test, now noted: antagonistic activity; IC50 group in enzyme release assay, RBL cells expressing human C5aR(CD88); read-out: activity (group).
For `O=C(NCC(O)CO)N[C@@H](Cc1ccccc1)C(=O)N[C@H]1CCCNC(=O)[C@H](Cc2ccccc2)NC(=O)[C@H](Cc2c[nH]c3ccccc23)NC(=O)[C@@H](CC2CCCCC2)NC(=O)[C@@H]2C[C@@H](O)CN2C1=O` (stereo partly drawn) [Compound 336, Fhb-[Phe-Orn-Hyp-cha-Trp-Phe]] ({NHCH2CH(OH)CH2OH-CO}-F[Orn][Hyp][dCha]WF; lactam 2-C), the IC50 was 50 to 200 nM.
On the same count and under the same terms, then `CC(=O)N[C@@H](Cc1ccccc1)C(=O)N[C@@H](CCCN)C(=O)N1CCC[C@H]1C(=O)N[C@H](CCC(C)C)C(=O)NC(Cc1c[nH]c2cc(F)ccc12)C(=O)N[C@@H](Cc1ccccc1)C(N)=O` (stereo partly drawn) [Compound 269, Ac-Phe-Orn-Pro-hle-6FW-Phe-NH2] (Ac-F[Orn]P[d(hLeu)][ξTrp(6-F)]F-NH2), with 50 to 200 nM; and `COc1cccc(C[C@H](NC(C)=O)C(=O)N[C@@H](CCCN)C(=O)N2CCC[C@H]2C(=O)N[C@H](CCC(C)C)C(=O)N[C@@H](Cc2ccc(F)cc2)C(=O)N[C@@H](Cc2ccccc2)C(N)=O)c1` [Compound 164, Ac-Mmy-Orn-Pro-hle-Pff-Phe-NH2] (Ac-[Phe(3-OMe)][Orn]P[d(hLeu)][Phe(4-F)]F-NH2), with 50 to 200 nM; and `CCCC[C@@H]1NC(=O)[C@H](Cc2c[nH]c3ccccc23)NC(=O)[C@@H](CCC(C)C)NC(=O)[C@H](CO)NC(=O)[C@@H](NC(=O)[C@H](Cc2ccccc2)NC(C)=O)CCCNC1=O` [Compound 202, Ac-Phe-[Orn-Ser-hle-Trp-Nle]] (Ac-F[Orn]S[d(hLeu)]W[Nle]; lactam 2-C), with 50 to 200 nM.
Same read-out and setting: the figure for `CC(=O)N[C@H](C(=O)N[C@@H](CCCN)C(=O)N1CCC[C@H]1C(=O)N[C@H](CC1CCCCC1)C(=O)N[C@@H](Cc1c[nH]c2ccccc12)C(=O)N[C@@H](Cc1ccccc1)C(N)=O)C(c1ccccc1)c1ccccc1` [Compound 78, Ac-Ebw-Orn-Pro-cha-Trp-Phe-NH2] (Ac-[Dip][Orn]P[dCha]WF-NH2) is 50 to 200 nM; for `CC(=O)N[C@@H](Cc1ccccc1)C(=O)N[C@@H](CCCN)C(=O)N1CCC[C@H]1C(=O)N[C@H](CSC(C)(C)C)C(=O)N[C@@H](Cc1csc2ccccc12)C(=O)N[C@@H](Cc1ccccc1)C(N)=O` [Compound 263, Ac-Phe-Orn-Pro-ctb-Bta-Phe-NH2] (Ac-F[Orn]P[dC](tBu)[Bta]F-NH2) it is 20 to 50 nM.
Take `CCCC[C@@H]1NC(=O)[C@H](Cc2c[nH]c3ccccc23)NC(=O)[C@@H](CC2CCCCC2)NC(=O)[C@@H]2C[C@@H](OC(=O)COCCOCCOC)CN2C(=O)[C@@H](NC(=O)[C@H](Cc2ccccc2)NC(C)=O)CCCNC1=O` [Compound 5, Ac-Phe-[Orn-Hyp(COCH2OCH2CH2OCH2CH2OCH3)-cha-Trp-Nle]] (Ac-F[Orn][Hyp](Decanoyl(3,6,9-trioxa))[dCha]W[Nle]; lactam 2-C): the IC50 was 50 to 200 nM.
As for `C#CC[C@@H]1NC(=O)[C@H](Cc2c[nH]c3ccccc23)NC(=O)[C@@H](CC2CCCCC2)NC(=O)[C@@H]2CCCN2C(=O)[C@@H](NC(=O)[C@H](Cc2ccccc2)NC(C)=O)CCCNC1=O` [Compound 35, Ac-Phe-[Orn-Pro-cha-Trp-Eag]] (Ac-F[Orn]P[dCha]W[Pra]; lactam 2-C), the IC50 is 5 to 10 nM.
As to `CC(C)CC[C@H]1NC(=O)[C@H](CO)NC(=O)[C@@H](NC(=O)[C@@H](N)Cc2ccccc2)CCCNC(=O)[C@H](CC(C)C)NC(=O)[C@H](Cc2ccc(F)cc2)NC1=O` [Compound 387, H-Phe-[Orn-Ser-hle-Pff-Leu]] (H-F[Orn]S[d(hLeu)][Phe(4-F)]L; lactam 2-C), the IC50 was in the range of 50 to 200 nM.
For the compound `CCCC[C@@H]1NC(=O)[C@H](Cc2c[nH]c3ccccc23)NC(=O)[C@@H](CC2CCCCC2)NC(=O)[C@H](CC(N)=O)NC(=O)[C@@H](NC(=O)[C@H](Cc2ccccc2)NC(C)=O)CCCNC1=O` [Compound 173, Ac-Phe-[Orn-Asn-cha-Trp-Nle]] (Ac-F[Orn]N[dCha]W[Nle]; lactam 2-C), the IC50 was in the range of 50 to 200 nM.
On the same count and under the same terms, then `CC(=O)N(C)[C@@H](Cc1ccccc1)C(=O)N[C@@H](CCCN)C(=O)N1CCC[C@H]1C(=O)N[C@H](CC1CCCCC1)C(=O)N[C@@H](Cc1csc2ccccc12)C(=O)N[C@@H](Cc1ccccc1)C(N)=O` [Compound 165, Ac-NMF-Orn-Pro-cha-Bta-Phe-NH2] (Ac-[NMeF][Orn]P[dCha][Bta]F-NH2), with 50 to 200 nM.
In the case of `CCCC[C@@H]1NC(=O)[C@H](Cc2ccc(F)cc2)NC(=O)[C@@H](CCC(C)C)NC(=O)[C@@H]2C[C@@H](O)CN2C(=O)[C@@H](NC(=O)[C@H](Cc2ccccc2)NC(=O)[C@@H]2CC(=O)NC(=O)N2)CCCNC1=O` [Compound 347, Hoo-Phe-[Orn-Hyp-hle-Pff-Nle]] ({Dihydroorotyl(S)}-F[Orn][Hyp][d(hLeu)][Phe(4-F)][Nle]; lactam 2-C), the IC50 lay in the range of 50 to 200 nM.
Still for that read-out and setting: then `CC(=O)N[C@@H](C)C(=O)N[C@@H](Cc1ccccc1)C(=O)N[C@@H](CCCN)C(=O)N1CC[C@H]1C(=O)N[C@H](CC1CCCCC1)C(=O)N[C@@H](Cc1csc2ccccc12)C(=O)N[C@@H](Cc1ccccc1)C(N)=O` [Compound 151, Ac-Ala-Phe-Orn-Aze-cha-Bta-Phe-NH2] (Ac-AF[Orn][Aze][dCha][Bta]F-NH2), with 20 to 50 nM.
With `CCCC[C@@H]1NC(=O)[C@H](Cc2c[nH]c3ccccc23)NC(=O)[C@@H](CC2CCCCC2)NC(=O)[C@@H]2CCCN2C(=O)[C@@H](NC(=O)[C@H](Cc2ccccc2)N(C)C)CCCNC1=O` [Compound 331, Fbp-[Orn-Pro-cha-Trp-Nle]] (NMe2Phe-[Orn]P[dCha]W[Nle]; lactam 1-C), the IC50 was in the range of 50 to 200 nM.
Regarding `CC(=O)N[C@@H](Cc1ccc(NC(=N)N)cc1)C(=O)N[C@@H](Cc1ccccc1)C(=O)N[C@@H](CCCN)C(=O)N1CC[C@H]1C(=O)N[C@H](CC1CCCCC1)C(=O)N[C@@H](Cc1csc2ccccc12)C(=O)N[C@@H](Cc1ccccc1)C(N)=O` [Compound 140, Ac-Guf-Phe-Orn-Aze-cha-Bta-Phe-NH2] (Ac-[Phe(4-guanidino)]F[Orn][Aze][dCha][Bta]F-NH2), the IC50 was in the range of 50 to 200 nM.
`CC(=O)N[C@@H](CCCN)C(=O)N[C@@H](Cc1ccccc1)C(=O)N[C@@H](CCCN)C(=O)N1CC[C@H]1C(=O)N[C@H](CC1CCCCC1)C(=O)N[C@@H](Cc1csc2ccccc12)C(=O)N[C@@H](Cc1ccccc1)C(N)=O` [Compound 168, Ac-Orn-Phe-Orn-Aze-cha-Bta-Phe-NH2] (Ac-[Orn]F[Orn][Aze][dCha][Bta]F-NH2): the IC50 lay within 50 to 200 nM.

Still in this test, the particulars now being: functional assay of example 11; noteworthy = IC50 less than 200 nM.
For the compound `C#CC[C@@H]1NC(=O)[C@H](Cc2c[nH]c3ccccc23)NC(=O)[C@@H](CC2CCCCC2)NC(=O)[C@@H]2CCCN2C(=O)[C@@H](NC(=O)[C@H](Cc2ccccc2)NC(C)=O)CCCNC1=O` [Compound 35, Ac-Phe-[Orn-Pro-cha-Trp-Eag]] (Ac-F[Orn]P[dCha]W[Pra]; lactam 2-C), the “inhibitory activity (in words)” value was “without significant loss of activity”.

Still in this test, the particulars now being: functional assay of example 11; noteworthy = IC50 less than 200 nM; listed as Ac-Phe-[Orn-Pro-cha-Trp-Eag].
As to `C#CC[C@@H]1NC(=O)[C@H](Cc2c[nH]c3ccccc23)NC(=O)[C@@H](CC2CCCCC2)NC(=O)[C@@H]2CCCN2C(=O)[C@@H](NC(=O)[C@H](Cc2ccccc2)NC(C)=O)CCCNC1=O` [Compound 35, Ac-Phe-[Orn-Pro-cha-Trp-Eag]] (Ac-F[Orn]P[dCha]W[Pra]; lactam 2-C), the “inhibitory activity (in words)” value is given as “noteworthy inhibitory activity”.

The record behind these values is patent US20080161232A1, “C5a Receptor Antagonist” (JERINI AG, priority 2005, published 2008).
